Source: BindingDB's records for patent US12544382 (Beijing Tide Pharmaceutical Co., 2026)

Target: Serine/threonine-protein kinase ATR (Homo sapiens, UniProt Q13535)
Experiment: ATR Kinase Activity Assay
Protocol: Biotinylated protein derived from p53 (Eurofins, art. No.: 14-952) was phosphorylated with ATR kinase. The amount of phosphorylated protein was determined by time-resolved fluorescence in this assay. The amount of phosphorylated protein was detected by anti-p53-phospho-(serine 15)-K-specific antibody (Cisbio, art. No.: 61GSTDLA) and d2 labeled anti-GST antibody (Cisbio, art. No. 61P08KAE). Before the experiment, the following working solution was prepared as required: 1× reaction buffer (20 mM HEPES PH8.0, 1% glycerol, 0.01% Brij-35), dilution buffer (20 mM HEPES PH8.0, 1% glycerol, 0.01% Brij-35, 5 mM DTT and 1% BSA), stop solution (20 mM HEPES PH8.0, 1% glycerol, 0.01% Brij-35, 250 mM EDTA), detection buffer (50 mM HEPES pH7.0, 150 mM NaCl, 267 mM KF, 0.1% sodium cholate, 0.01% Tween-20, 0.0125% sodium azide). The reagents used above are purchased from Sigma or Invitrogen, except for those where the manufacturer was mentioned.

Serine/threonine-protein kinase ATR, sequence (Q13535 whole entry): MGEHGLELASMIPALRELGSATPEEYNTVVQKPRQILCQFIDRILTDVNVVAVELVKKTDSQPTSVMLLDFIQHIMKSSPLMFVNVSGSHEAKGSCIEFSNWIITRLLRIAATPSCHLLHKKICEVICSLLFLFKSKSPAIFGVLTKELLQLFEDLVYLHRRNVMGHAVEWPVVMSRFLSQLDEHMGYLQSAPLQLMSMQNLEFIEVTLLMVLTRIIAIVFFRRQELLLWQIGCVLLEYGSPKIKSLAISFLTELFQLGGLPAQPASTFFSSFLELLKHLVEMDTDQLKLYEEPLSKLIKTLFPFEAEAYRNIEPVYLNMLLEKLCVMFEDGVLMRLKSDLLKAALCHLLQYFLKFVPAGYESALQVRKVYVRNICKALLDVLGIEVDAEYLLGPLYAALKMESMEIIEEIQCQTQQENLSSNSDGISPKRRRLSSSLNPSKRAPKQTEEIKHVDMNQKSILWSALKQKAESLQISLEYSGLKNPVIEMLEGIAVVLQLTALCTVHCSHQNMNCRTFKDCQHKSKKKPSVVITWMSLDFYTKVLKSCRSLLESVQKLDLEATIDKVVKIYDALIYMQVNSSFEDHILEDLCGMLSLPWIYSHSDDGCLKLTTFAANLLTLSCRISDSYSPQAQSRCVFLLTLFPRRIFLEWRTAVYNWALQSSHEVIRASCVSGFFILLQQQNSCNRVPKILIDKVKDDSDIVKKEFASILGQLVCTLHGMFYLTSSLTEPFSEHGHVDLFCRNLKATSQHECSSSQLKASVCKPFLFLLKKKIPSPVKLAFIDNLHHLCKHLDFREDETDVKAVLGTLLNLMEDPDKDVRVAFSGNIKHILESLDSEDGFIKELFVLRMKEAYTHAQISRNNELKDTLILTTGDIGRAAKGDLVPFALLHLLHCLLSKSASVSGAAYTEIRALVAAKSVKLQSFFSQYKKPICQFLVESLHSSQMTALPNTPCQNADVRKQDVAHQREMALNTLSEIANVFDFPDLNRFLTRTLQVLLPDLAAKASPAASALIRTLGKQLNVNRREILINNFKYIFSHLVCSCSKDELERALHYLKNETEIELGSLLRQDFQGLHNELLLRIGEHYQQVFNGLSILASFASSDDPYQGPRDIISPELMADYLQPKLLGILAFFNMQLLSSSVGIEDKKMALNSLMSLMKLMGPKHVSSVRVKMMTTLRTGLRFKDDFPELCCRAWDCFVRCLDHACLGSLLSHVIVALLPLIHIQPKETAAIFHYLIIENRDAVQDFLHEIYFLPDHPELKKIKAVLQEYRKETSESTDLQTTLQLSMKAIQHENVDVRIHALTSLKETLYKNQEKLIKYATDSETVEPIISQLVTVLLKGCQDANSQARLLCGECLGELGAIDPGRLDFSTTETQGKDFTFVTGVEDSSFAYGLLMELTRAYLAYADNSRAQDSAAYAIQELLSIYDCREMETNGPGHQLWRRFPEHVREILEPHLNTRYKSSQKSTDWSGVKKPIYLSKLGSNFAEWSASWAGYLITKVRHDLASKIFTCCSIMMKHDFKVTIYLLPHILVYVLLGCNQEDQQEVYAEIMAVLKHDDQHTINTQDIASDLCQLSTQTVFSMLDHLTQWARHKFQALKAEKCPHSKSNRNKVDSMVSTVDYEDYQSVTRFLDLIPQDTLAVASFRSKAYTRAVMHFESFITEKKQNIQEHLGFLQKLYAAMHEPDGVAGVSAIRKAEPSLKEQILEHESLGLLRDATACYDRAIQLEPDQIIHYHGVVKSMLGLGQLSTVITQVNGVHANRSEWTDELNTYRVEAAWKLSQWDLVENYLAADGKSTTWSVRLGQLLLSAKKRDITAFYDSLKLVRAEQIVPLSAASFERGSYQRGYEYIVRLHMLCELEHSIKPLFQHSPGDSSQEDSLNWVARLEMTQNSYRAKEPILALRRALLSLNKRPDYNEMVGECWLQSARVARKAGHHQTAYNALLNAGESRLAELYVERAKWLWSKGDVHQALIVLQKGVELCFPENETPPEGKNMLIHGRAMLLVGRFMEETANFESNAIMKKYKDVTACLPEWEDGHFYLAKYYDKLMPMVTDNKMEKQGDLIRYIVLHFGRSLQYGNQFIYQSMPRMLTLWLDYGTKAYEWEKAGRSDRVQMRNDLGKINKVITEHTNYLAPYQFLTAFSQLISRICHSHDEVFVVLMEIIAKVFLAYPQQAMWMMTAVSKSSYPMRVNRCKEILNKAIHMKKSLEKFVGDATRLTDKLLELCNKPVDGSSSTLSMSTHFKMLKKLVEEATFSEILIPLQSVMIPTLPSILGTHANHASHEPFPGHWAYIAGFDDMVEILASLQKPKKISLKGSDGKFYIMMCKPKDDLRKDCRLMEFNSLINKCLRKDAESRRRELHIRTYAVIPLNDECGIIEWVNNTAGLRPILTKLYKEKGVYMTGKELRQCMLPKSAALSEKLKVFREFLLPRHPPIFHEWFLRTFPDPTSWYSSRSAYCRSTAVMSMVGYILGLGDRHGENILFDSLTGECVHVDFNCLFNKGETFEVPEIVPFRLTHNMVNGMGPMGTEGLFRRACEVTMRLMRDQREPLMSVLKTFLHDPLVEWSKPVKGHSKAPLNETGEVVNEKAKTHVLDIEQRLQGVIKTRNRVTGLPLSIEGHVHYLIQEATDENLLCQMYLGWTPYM

IC50 | Structure (SMILES)
2320 nM | Cc1nn(C)c(C)c1-c1cc(N2CCOC[C@H]2C)nc(-c2ccnc(C(F)F)c2)n1 [US12544382, Example A25]
47 nM | Cc1n[nH]c(C)c1-c1cc(N2CCOC[C@H]2C)nc(-c2ccnc3c2ccn3CC2CNC2)n1 [US12544382, Example A27]
3 nM | CNc1nc2ccccc2n1-c1nc(-c2c(C)nn(C3CCNCC3)c2C(F)(F)F)cc(N2CCOC[C@H]2C)n1 [US12544382, Example D24]
83 nM | CNc1nc2cc(Cl)ccc2n1-c1nc(-c2c(C)nn(C3CCNCC3)c2C(F)(F)F)cc(N2CCOC[C@H]2C)n1 [US12544382, Example D25]
